Earlier results as cited in patent US10945991B2, “Use and pharmaceutical composition for liver fibrosis prevention and/or treatment” (Cojet Biotech Inc., priority 2018, dated 2021).

Tested on: RAW 264.7 cell line

Cc1cc(O)c2c(c1O)OCO2 [MBDD, 5-methyl-benzol[1,3]dioxole-4,7-diol]
NO production induced by lipopolysaccharide (RAW 264.7 cell line, effect may result from cytotoxicity): reduce the NO production
cytotoxicity (RAW 264.7 cells): strong cytotoxicity
